The record followed here is US20150118329A1, “METHOD FOR PROMOTING ADIPONECTIN PRODUCTION, PREVENTION AND TREATMENT OF HYPOADIPONECTINEMIA” (AMINO UP CHEMICAL CO., LTD., priority 2011, published 2015).

The assay concerns adipocytes derived from a patient with diabetes, who was severely obese. Briefly: Screening of functional food product materials (samples 1 to 71) for APR in adipocytes derived from a severely obese diabetic patient. The following applies: 48 hour value divided by 96 hour value. The class given is cell-based, human. Here is the method:
Fat tissues were harvested from remainder tissues removed at the time of surgery of a subject (a patient who was severely obese and had diabetes) who provided informed consent. These fat tissues were treated in the same manner as in Example 1 and used in screening for the adiponectin production-promoting action of functional food product materials (samples 1 to 71).
The samples 1 to 71 (Table 1 and Table 2) were suspended and dissolved in water, heated water (80° C.) or DMSO, and then stirred for 30 minutes, followed by filter filtration […]) for preparation thereof. The sample 25 was prepared by filter filtration (Φ0.45 μm) without carrying out dilution. Further, with regard to the samples 1 to 18, each of the samples was made with water to 1% suspension or aqueous solution, followed by filter filtration (Φ0.45 μm) for preparation thereof. Botanbouhu extract of the samples 58 and 59 was prepared in the same manner as in Example 2. Table 1 and Table 2 show material, solvent and concentration in the culture medium of samples 1 to 71 (samples 6 to 8 “Mixture of three types of peptides” (manufactured by Katano Bussan) is a mixture of peptides derived from dried kelp or konbu, sardine and pearl oyster).
Eight days after DM-2 treatment, the medium was changed to AM-1 medium with each of the samples 1 to 71 being added and 48 hour value and 96 hour value were measured in the same manner as described in Example 3. APR (Adiponectin Production Ratio; adiponectin secretion promoting index) was calculated by dividing the 48 hour value by the 96 hour value. The results are shown in Table 1 and Table 2 and FIG. 4A.

The mark [1] stands for this setting: concentration in culture medium 0.067%.
Where [2] appears, read: concentration in culture medium 10 nM.

Regarding `CC1=C(/C=C/C(C)=C/C=C/C(C)=C/C=C/C=C(C)/C=C/C=C(C)/C=C/C2=C(C)C(=O)[C@@H](O)CC2(C)C)C(C)(C)C[C@H](O)C1=O` [Sample 37, Astaxanthin], the APR under setting [1] was determined as 0.34. `CCc1ccc(CCOc2ccc(CC3SC(=O)NC3=O)cc2)nc1` (stereo not shown) [Sample 60, Pioglitazone] showed an APR under setting [2] of 0.96. Consider `CCCc1nc2c(C)cc(-c3nc4ccccc4n3C)cc2n1Cc1ccc(-c2ccccc2C(=O)O)cc1` [Sample 61, Telmisartan], for which, under setting [2], the APR turned out to be 0.54. As to `Cc1c(C(=O)NN2CCCCC2)nn(-c2ccc(Cl)cc2Cl)c1-c1ccc(Cl)cc1` [Sample 62, Rimonabant], the APR under setting [2] was 0.69. Still for that read-out and setting: the figure for `CC(=O)S[C@@H]1CC2=CC(=O)CC[C@]2(C)[C@H]2CC[C@@]3(C)[C@@H](CC[C@@]34CCC(=O)O4)[C@H]12` [Sample 63, Spironolactone] is 0.60.

Consider `COC(=O)[C@@H]1CC2=CC(=O)CC[C@]2(C)[C@@]23O[C@@H]2C[C@@]2(C)[C@@H](CC[C@@]24CCC(=O)O4)[C@H]13` [Sample 64, Eplerenone], for which, under setting [2], the APR came out at 0.62. `CC(C)(Oc1ccc(CCNC(=O)c2ccc(Cl)cc2)cc1)C(=O)O` [Sample 65, Bezafibrate] gave an APR under setting [2] of 0.75. In the case of `O=S(=O)(c1cccc2cnccc12)N1CCCNCC1` [Sample 66, Fasudil], the APR under setting [2] was 0.58.

On to `CCCc1nc(C(C)(C)O)c(C(=O)O)n1Cc1ccc(-c2ccccc2-c2nnn[nH]2)cc1` [Sample 69, Olmesartan], for which the APR under setting [2] is 0.00. The same measure, in the same setting: then `CCC1=C(C)CN(C(=O)NCCc2ccc(S(=O)(=O)NC(=O)N[C@H]3CC[C@H](C)CC3)cc2)C1=O` [Sample 70, Glimepyride], with 0.82; and `CN(C)C(=N)N=C(N)N` [Sample 71, Metformin], with 0.53. Compound Fucoxanthin [Sample 36] displayed an APR under setting [1] of 0.34. As for Hyaluronic acid [Sample 31], the APR under setting [1] is reported as 0.36.
